From paper PMC8592419 (PLoS ONE, 2021)
In brackets after ≈: the same amount, converted by molar mass. Where two headings read alike, the source gives them in different places. Where a SMILES comes first, the peptide text is derived from it.

Experiments:
[1] = test system: M. abscessus clinical isolate MAB13; experiment: In vitro susceptibility testing (DST), CLSI broth microdilution; format: cell-based, M. abscessus subsp. massiliense; parameters: key to DST profile, interpretation, Day 3 / DST profile, interpretation, Day 5 / DST profile, interpretation, Day 14: S, susceptible; I, intermediate; R, resistant; details: for MIC: Mycobacteroides abscessus
Description: (§1) Drug susceptibility testing (DST) was performed according to the Clinical and Laboratory Standards Institute (CLSI) guidelines M24-A2 [42] using the broth microdilution method to determine the minimum inhibitory concentration (MIC). […] Colonies were grown at an adjusted cell density to a 0.5 McFarland standard and further diluted to 5×10^5 CFU/ml. […] These were then incubated at 37°C for 3, 5 and 14 days. The MIC was defined as the concentration in which no visible growth was observed. The results were interpreted according to the guidelines of CLSI. Inducible resistance was inferred by changes in MIC values from being susceptible at day 3 to resistant at day 14.

[2] = test system: M. abscessus clinical isolate MAB14; experiment: as above; format: cell-based, M. abscessus subsp. massiliense; parameters: key to DST profile, interpretation, Day 3 / DST profile, interpretation, Day 5 / DST profile, interpretation, Day 14: S, susceptible; I, intermediate; R, resistant; details: for MIC: Mycobacteroides abscessus
Description: as §1

[3] = test system: M. abscessus clinical isolate MAB15; experiment: as above; format: cell-based, M. abscessus subsp. massiliense; parameters: key to DST profile, interpretation, Day 3 / DST profile, interpretation, Day 5 / DST profile, interpretation, Day 14: S, susceptible; I, intermediate; R, resistant; details: for MIC: Mycobacteroides abscessus
Description: as §1

[4] = test system: M. abscessus clinical isolate MAB16; experiment: as above; format: cell-based, M. abscessus subsp. massiliense; parameters: key to DST profile, interpretation, Day 3 / DST profile, interpretation, Day 5 / DST profile, interpretation, Day 14: S, susceptible; I, intermediate; R, resistant; details: for MIC: Mycobacteroides abscessus
Description: as §1

[5] = test system: M. abscessus clinical isolate MAB06; format: cell-based, M. abscessus subsp. abscessus; details: 3 days at 37°C
Description: (§2) Briefly, serial dilutions of the AMPs were prepared with potassium phosphate buffer (PPB) from the concentration range of 3.125 to 400 μg/ml and then 50 μl of each dilution were added to each 96-well plate. Colonies of the isolate were suspended and then further diluted in Mueller-Hinton broth to obtain a final concentration of 1×10^3 CFU/ml (optimized according to the available AMP stock concentration). Fifty microliters of this inoculum were added to each well of the plates. The plates were incubated for 3 days at 37°C. Plain media and bacterial suspensions without AMPs were used as negative and positive controls. The MIC values were read and recorded. All assays were performed in duplicate and two independent experiments.
(§3) For the in vitro antimicrobial susceptibility, the same protocol as described above was used. The culture plates were further incubated up to 3 days at 37°C. The MIC values were read and recorded.

[6] = test system: M. abscessus clinical isolate MAB13; format: cell-based, M. abscessus subsp. massiliense; details: 3 days at 37°C
Description: as §2, §3

[7] = test system: human peripheral blood mononuclear cells (PBMCs); experiment: PBMC toxicity, trypan blue exclusion assay; format: cell-based; details: 1 h at 37°C, mean±SD of duplicates, two independent experiments
Description: For the toxicity of the potential AMPs to human peripheral blood mononuclear cells (PBMCs), the trypan blue exclusion assay was used. Fresh human PBMCs were prepared from blood samples of healthy volunteers using the Ficoll density gradient technique. The cells were centrifuged at 1,800 rpm for 20 min at 20°C and washed three times with PBS and adjusted with RPMI-1640 medium into 6.25×10^5 cells/ml. Fifty microliters of PBMC suspension and 50 μl of AMP solutions (6.25–400 μg/ml) were added to the 96-well microtiter plates and incubated for 1 h at 37°C. Then, 20 μl of the samples were mixed with 20 μl of 0.4% (w/v) trypan blue solution (0.81% NaCl and 0.06% (w/v) dibasic potassium phosphate) in microtubes and incubated for 3 min at room temperature. The PBMC suspensions treated with PBS were used as negative controls. PBMCs were counted using a dual-chamber hemocytometer under a light microscope. Viable and non-viable cells were counted under a microscope and the percentage of viable cells was calculated using the following formula: % of viable cells = [1.00 –([…] / Number of total cells)] × 100. All assays were performed in duplicate with two independent experiments.

Mab ATCC19977 strain = format: cell-based, Mycobacterium abscessus
Description: as §2

[8] = test system: clinical isolates of M. abscessus; experiment: In vitro susceptibility of potential AMPs, 3 days, summary over isolates; format: cell-based, Mycobacterium abscessus; details: isolates MAB01 and MAB03
Description: as §2, §3

[9] = test system: sixteen clinical Mab isolates; experiment: 24-hour bactericidal activity assay, summary over isolates; format: cell-based, Mycobacterium abscessus; details: majority of the tested strains (10/16 isolates); equivalent of <50 μg/ml
Description: as §2
Potential AMPs from the screening assays were subjected to determine the 24-hour bactericidal activity assays (corresponding to the common time of administration) with sixteen clinical Mab isolates using the protocol as described above. To observe the early antimicrobial activities, the plates were incubated for 24 h at 37°C. The samples from each well were further diluted in 0.05% Tween 80 and inoculated on Mueller-Hinton agar. After incubation for 3 days at 37°C, the colony-forming units (CFUs) were counted and calculated for the percentage of killing using the following formula: % killing = 1 - (CFU sample/ CFU control) ×100.

[10] = 72 h, day 3, read-out: DST profile, MIC value, Day 3
[11] = 120 h, day 5, read-out: DST profile, MIC value, Day 5
[12] = 336 h, day 14, read-out: DST profile, MIC value, Day 14

## CC[C@H]1OC(=O)[C@H](C)[C@@H](O[C@H]2C[C@@](C)(OC)[C@@H](O)[C@H](C)O2)[C@H](C)[C@@H](O[C@@H]2O[C@H](C)C[C@H](N(C)C)[C@H]2O)[C@](C)(OC)C[C@@H](C)C(=O)[C@H](C)[C@@H](O)[C@]1(C)O [CLA, Clarithromycin]
[1]; [10]
  MIC: 8 µg/mL (≈ 10.7 µM)
[1]; [11]
  MIC: 32 µg/mL (≈ 42.8 µM)
[1]; [12]
  MIC: 32 µg/mL (≈ 42.8 µM)
[1]; day 3, CLSI interpretation
  DST profile, interpretation, Day 3: R
[1]; day 5, CLSI interpretation
  DST profile, interpretation, Day 5: R
[1]; day 14, CLSI interpretation
  DST profile, interpretation, Day 14: R
[2]; [10]
  MIC: 512 µg/mL (≈ 685 µM)
[2]; [11]
  MIC: 512 µg/mL (≈ 685 µM)
[2]; [12]
  MIC: 512 µg/mL (≈ 685 µM)
[2]; day 3, CLSI interpretation
  DST profile, interpretation, Day 3: R
[2]; day 5, CLSI interpretation
  DST profile, interpretation, Day 5: R
[2]; day 14, CLSI interpretation
  DST profile, interpretation, Day 14: R
[3]; [10]
  MIC: 4 µg/mL (≈ 5.35 µM)
[3]; [11]
  MIC: 4 µg/mL (≈ 5.35 µM)
[3]; [12]
  MIC: 4 µg/mL (≈ 5.35 µM)
[3]; day 3, CLSI interpretation
  DST profile, interpretation, Day 3: I
[3]; day 5, CLSI interpretation
  DST profile, interpretation, Day 5: I
[3]; day 14, CLSI interpretation
  DST profile, interpretation, Day 14: I
[4]; [10]
  MIC: 0.2 µg/mL (≈ 0.267 µM)
[4]; [11]
  MIC: 2 µg/mL (≈ 2.67 µM)
[4]; [12]
  MIC: 2 µg/mL (≈ 2.67 µM)
[4]; day 3, CLSI interpretation
  DST profile, interpretation, Day 3: S
[4]; day 5, CLSI interpretation
  DST profile, interpretation, Day 5: S
[4]; day 14, CLSI interpretation
  DST profile, interpretation, Day 14: S

## CC[C@H](C)[C@H](NC(=O)[C@H](CCCCN)NC(=O)[C@H](CCCNC(=N)N)NC(=O)CNC(=O)[C@H](CC(C)C)NC(=O)[C@H](CO)NC(=O)[C@H](CCCNC(=N)N)NC(=O)[C@H](CC(C)C)NC(=O)CNC(=O)CN)C(=O)N[C@@H](CC(C)C)C(=O)N[C@@H](CCCNC(=N)N)C(=O)N[C@@H](C)C(=O)N[C@@H](Cc1c[nH]c2ccccc12)C(=O)N[C@@H](CCCCN)C(=O)N[C@@H](CCCCN)C(=O)N[C@@H](Cc1ccc(O)cc1)C(=O)O [S61] (H-GGLRSLGRKILRAWKKY-OH)
[5]
  Antimicrobial peptides against M. abscessus isolates, MIC value: >400 µg/mL
[6]
  Antimicrobial peptides against M. abscessus isolates, MIC value: >400 µg/mL
[7]; 6.25 µg/mL
  Viable cells of PBMCs (% viable cells): 97.98±1.38%
[7]; 12.5 µg/mL
  Viable cells of PBMCs (% viable cells): 94.40±0.56%
[7]; 25 µg/mL
  Viable cells of PBMCs (% viable cells): 95.35±3.74%
[7]; 50 µg/mL
  Viable cells of PBMCs (% viable cells): 87.35±7.57%
[7]; 100 µg/mL
  Viable cells of PBMCs (% viable cells): 79.70±6.73%
[7]; 200 µg/mL
  Viable cells of PBMCs (% viable cells): 38.76±0.82%
[7]; 400 µg/mL
  Viable cells of PBMCs (% viable cells): 41.40±5.84%
Mab ATCC19977 strain
  MIC values: 200 µg/mL (≈ 99.9 µM)
[8]
  MIC values after 3 days: 3.13 µM (≈ 6.27 µg/mL)
[9]
  MIC with ~99% killed within 24 h, in μM: less than 24.97 μM

## CC[C@H](C)[C@H](NC(=O)[C@H](CCCCN)NC(=O)[C@H](CCCNC(=N)N)NC(=O)CNC(=O)[C@H](CC(C)C)NC(=O)[C@H](CO)NC(=O)[C@H](CCCNC(=N)N)NC(=O)[C@H](CC(C)C)NC(=O)CNC(=O)CN)C(=O)N[C@@H](CC(C)C)C(=O)N[C@@H](CCCNC(=N)N)C(=O)N[C@@H](C)C(=O)N[C@@H](Cc1c[nH]c2ccccc12)C(=O)N[C@@H](CCCCN)C(=O)O [S63] (H-GGLRSLGRKILRAWK-OH)
[5]
  Antimicrobial peptides against M. abscessus isolates, MIC value: >400 µg/mL
[6]
  Antimicrobial peptides against M. abscessus isolates, MIC value: >400 µg/mL
[7]; 6.25 µg/mL
  Viable cells of PBMCs (% viable cells): 103.67±6.60%
[7]; 12.5 µg/mL
  Viable cells of PBMCs (% viable cells): 101.78±5.46%
[7]; 25 µg/mL
  Viable cells of PBMCs (% viable cells): 88.38±7.60%
[7]; 50 µg/mL
  Viable cells of PBMCs (% viable cells): 93.65±6.02%
[7]; 100 µg/mL
  Viable cells of PBMCs (% viable cells): 66.28±2.71%
[7]; 200 µg/mL
  Viable cells of PBMCs (% viable cells): 71.94±8.32%
[7]; 400 µg/mL
  Viable cells of PBMCs (% viable cells): 48.78±0.59%
Mab ATCC19977 strain
  MIC values: 200 µg/mL (≈ 117 µM)
[8]
  MIC values after 3 days: 3.65 to 7.30 µM
[9]
  MIC with ~99% killed within 24 h: < 29.22 µM
